The source of these data is patent publication US5440012A, “Calcitonin and method for the preparation and use thereof” (Sumitomo Metal Industries, Ltd., priority 1991, dated 1995).

Test [1] concerns concentration of calcium in the serum. The experiment in a line: Blood calcium-decreasing activity in rats (serum calcium, parallel line assay). The class given is in vivo, Male Wistar rats. The procedure:
The physiological activities of the pure naturally-occurring stingray calcitonin extracted from the ultimobranchial gland of a stingray and those of synthetic stingray calcitonin obtained in the above-described manner were determined according to the technique of Homma et al (J. Biochem. 100: 459-467, 1986).
Male Wistar rats weighing 90-110 grams (10 animals in each group) which had fasted for 24 hours prior to the experiment were intravenously injected with a standard solution of salmon calcitonin or eel calcitonin or a solution of the synthetic stingray calcitonin (produced in Example 2) each dissolved in an aqueous 0.9% sodium chloride solution (pH 4.6) containing 0.1% bovine serum albumin at a dose of 1 pmol or 10 pmol per animal. Exactly one hour after the administration, a blood sample was collected from the artery of each test animal and the concentration of calcium in the serum was determined by atomic absorption spectroscopy. Based on the values for serum calcium concentration in rats of the groups in which one of the standard solutions was administered at a dose of 1 pmol or 10 pmol per animal and those in rats of the group in which the stingray calcitonin of the present invention was administered at the same dose, the relative titer of the stingray calcitonin was determined by the standard statistical procedures for parallel line assays. […]

Test [2] concerns grown cartilage cell culture of rabbit costal cartilage. The experiment in a line: Alkaline phosphatase activity per protein in rabbit costal cartilage cell culture (chondrocyte differentiation). As to conditions: 10 μl of 10^-12 mol/ml calcitonin solution added on fourth and sixth days, 9 days incubation; control about 88,150. In kind it is cell-based. The procedure: When their physiological activities on cartilage cells or chondrocytes were determined according to the technique of Bessey et al (J. Biol. Chem. 164: 321-329, 1964) and that of Lowry et al (J. Biol. Chem. 193: 265-275, 1951), a strong cell differentiation-promoting activity was noted. […]
After incubation for 9 days, the cell layer (1) was recovered and the alkaline phosphatase activity in each well was determined by the method of Bessey et al (J. Biol. Chem. 164: 321-329, 1946) using p-nitrophenylphosphoric acid as a substrate.
The amount of protein in each well was also determined by assaying the recovered cell layer (1) in accordance with the method of Lowry et al (J. Biol. Chem. 193: 265-275, 1951) using bovine serum albumin as a standard substance.
The value for alkaline phosphatase activity per unit weight of protein was calculated from the values for alkaline phosphatase activity and amount of protein determined as above. The calculated value of the control was about 88,150 nmol/30 min/mg-protein. […]

Positions of bridges follow the written chain, without caps; N, C: chain ends. Residues, ends and D or L forms follow the SMILES beside them.

Take `CC[C@H](C)[C@H](NC(=O)[C@H](CC(N)=O)NC(=O)[C@H](CCC(N)=O)NC(=O)[C@H](CC(C)C)NC(=O)[C@H](CCCCN)NC(=O)[C@H](Cc1c[nH]cn1)NC(=O)[C@H](CC(C)C)NC(=O)[C@H](CCC(N)=O)NC(=O)[C@H](CCC(N)=O)NC(=O)[C@H](CO)NC(=O)[C@H](CC(C)C)NC(=O)[C@H](CCCCN)NC(=O)CNC(=O)[C@@H](NC(=O)[C@@H](NC(=O)[C@@H]1CSSC[C@H](N)C(=O)N[C@@H]([C@@H](C)O)C(=O)N[C@@H](CO)C(=O)N[C@@H](CC(C)C)C(=O)N[C@@H](CO)C(=O)N[C@@H]([C@@H](C)O)C(=O)N1)C(C)C)C(C)C)C(=O)N[C@@H](CCC(N)=O)C(=O)N[C@@H](CCCNC(=N)N)C(=O)N[C@H](C(=O)N[C@@H](CC(=O)O)C(=O)N[C@H](C(=O)NCC(=O)N[C@@H](C)C(=O)N[C@@H](C)C(=O)N[C@H](C(=O)N1CCC[C@H]1C(N)=O)[C@@H](C)O)C(C)C)[C@@H](C)O` [calcitonin of the present invention] (H-CTSLSTCVVGKLSQQLHKLQNIQRTDVGAATP-NH2; disulfide 1-7): the “titer (blood calcium-decreasing activity)” value in test [1] (rats, intravenous, 1 pmol or 10 pmol per animal, serum calcium one hour after administration, salmon and eel calcitonin used as standard substances) was “about 3770 IU/mg”. For the same compound, the “blood calcium-decreasing activity (in words)” value in test [1] (technique of Homma et al) is on record as “strong blood calcium-decreasing activity”. Besides, the “alkaline phosphatase activity per unit weight of protein” value in test [2] is given as “about 106,000 nmol/30 min/mg-protein”.
